Laboratory results: patent EP2088143A1, “Novel inhibitors of mycobacterium tuberculosis complex cytochrome P450 CYP121” (priority 2008, dated 2009)

What was measured:
CYP121 [1] = target: T1, CYP121 (Mycobacterium tuberculosis, UniProt P9WPP7); assay: Spectral binding titration of CYP121 by cyclodipeptide (UV/Vis absorbance spectroscopy, type I binding); conditions: 2 µM CYP121, Tris-HCl 50 mM pH 7.6 10% glycerol; ΔA388-ΔA416 versus cyclodipeptide concentration; mean of four experiments; read-out: binding constant (Ks)
CYP121 [2] = target: T1, CYP121; assay: CYP121 enzyme assay: transformation of cyclodipeptide with electron transport chain and NADPH, RP-HPLC analysis; type: biochemical; conditions: 30°C; for transformation of cyclodipeptide by CYP121: ~0.1 mM cyclodipeptide, 5 µM CYP121, electron transport chain, 0-60 min
Target sequence in this assay (P9WPP7 2-396 limits assumed): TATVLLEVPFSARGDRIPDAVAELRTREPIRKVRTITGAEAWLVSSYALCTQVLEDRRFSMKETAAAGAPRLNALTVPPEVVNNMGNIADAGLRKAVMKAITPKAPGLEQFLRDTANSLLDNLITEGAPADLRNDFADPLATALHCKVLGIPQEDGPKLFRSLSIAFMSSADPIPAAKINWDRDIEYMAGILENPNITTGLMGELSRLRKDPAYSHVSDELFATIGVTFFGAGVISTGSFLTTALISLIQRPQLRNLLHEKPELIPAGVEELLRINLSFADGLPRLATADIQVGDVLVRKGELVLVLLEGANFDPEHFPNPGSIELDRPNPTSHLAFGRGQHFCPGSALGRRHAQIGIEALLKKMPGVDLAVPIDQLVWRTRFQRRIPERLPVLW

CYP121 [3] = target: T1, CYP121; assay: Inhibition of CYP121 activity: cyclo(L-Tyr-L-Tyr) transformation in the presence of added compound, RP-HPLC analysis; type: biochemical
Target sequence in this assay (P9WPP7 2-396 limits assumed): as above

CYP121 [4] = target: T1, CYP121; assay: Co-crystallisation with CYP121 and X-ray structure of the complex; type: binding; conditions: co-crystals; 0.2 mM cyclo(L-Tyr-L-Phe), 0.8 mM cyclo(L-Tyr-L-Ala)
Target sequence in this assay (P9WPP7 2-396 limits assumed): as above

[5] = target: Mycobacterium tuberculosis cytochrome P450 CYP121 (Mycobacterium bovis BCG Pasteur (100% identical to Mycobacterium tuberculosis H37Rv)) (UniProt P9WPP7); assay: cell-based or functional assay
[6] = target: Mycobacterium tuberculosis cytochrome P450 CYP121 (Mycobacterium bovis BCG Pasteur (100% identical to Mycobacterium tuberculosis H37Rv)) (UniProt P9WPP7); assay: spectrally estimated dissociation constant (Ks); UV/Vis titration of 2 µM CYP121, ΔA388-ΔA416 fitted to a hyperbola

Mycobacterium tuberculosis cytochrome P450 CYP121 (Mycobacterium bovis BCG Pasteur (100% identical to Mycobacterium tuberculosis H37Rv)), sequence (P9WPP7 whole entry): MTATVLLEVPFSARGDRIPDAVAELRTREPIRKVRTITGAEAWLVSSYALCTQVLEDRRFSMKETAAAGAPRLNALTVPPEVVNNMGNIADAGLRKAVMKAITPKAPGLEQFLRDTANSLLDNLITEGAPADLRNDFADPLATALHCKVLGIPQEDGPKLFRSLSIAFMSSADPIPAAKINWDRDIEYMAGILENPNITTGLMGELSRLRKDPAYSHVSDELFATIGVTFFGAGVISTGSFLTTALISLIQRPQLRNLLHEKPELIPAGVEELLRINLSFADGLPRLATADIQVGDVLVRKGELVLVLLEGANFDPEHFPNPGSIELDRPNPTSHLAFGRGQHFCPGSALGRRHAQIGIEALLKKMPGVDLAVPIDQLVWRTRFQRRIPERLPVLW

O=C1N[C@@H](Cc2ccc(O)c(O)c2)C(=O)N[C@H]1Cc1ccc(O)cc1 [cyclo(L-DOPA-L-Tyr), cyclo(L-3 or 5,4-dihydroxyphenylalanine-L-Tyr)]
Kd (CYP121 [1]): 14.7 ± 1.5 µM
transformation of cyclodipeptide by CYP121 (CYP121 [2]; NADPH): no transformation was detected
inhibition of cyclo(L-Tyr-L-Tyr) transformation (CYP121 [3]; 1.2 mM added cyclodipeptide, 60 min incubation at 30°C): completely inhibits

C[C@@H]1NC(=O)[C@H](Cc2ccc(O)cc2)NC1=O [cyclo(L-Tyr-L-Ala)]
binding to CYP121 (crystal structure of the complex) (CYP121 [4]): bind to CYP121

O=C1N[C@@H](Cc2ccc(O)cc2)C(=O)N[C@H]1Cc1ccccc1 [cyclo(L-Tyr-L-Phe)]
binding to CYP121 (crystal structure of the complex) (CYP121 [4]): bind to CYP121

O=C1N[C@@H](Cc2c[nH]c3ccccc23)C(=O)N[C@H]1Cc1ccc(O)cc1 [cyclo(L-Tyr-L-Trp)]
Kd (CYP121 [1]): 63.4 ± 8.8 µM
transformation of cyclodipeptide by CYP121 (CYP121 [2]; NADPH): can be transformed by CYP121, albeit less efficiently than cyclo(L-Tyr-L-Tyr)
initial cyclo(L-Tyr-L-Tyr) detected after 60 min incubation (CYP121 [3]; 0.11 mM cyclo(L-Tyr-L-Tyr), 1.2 mM cyclo(L-Tyr-L-Trp), 60 min, 30°C, completely absent after 30 min without inhibitor): ~30%

O=C1N[C@@H](Cc2ccc(O)cc2)C(=O)N[C@H]1Cc1ccc(O)cc1 [cyclo(L-Tyr-L-Tyr)]
time to complete conversion of cyclo(L-Tyr-L-Tyr) by CYP121 (CYP121 [2]; no inhibitor added): less than 30 min
rate of cyclo(L-Tyr-L-Tyr) transformation (CYP121 [2]; in vitro conditions, exogenous electron transport chain, NADPH): 3.8 nmoles/min/nmole of CYP121
transformation of cyclodipeptide by CYP121 (CYP121 [2]; NADPH): complete consumption

cyclo(L-Tyr-L-Trp) (peptide)
inhibition of cyclo(L-Tyr-L-Tyr) transformation by CYP121 with 1.2 mM cyclo(L-Tyr-L-Trp) (RP-HPLC) [5]: 30

cyclo(L-Tyr-L-Tyr) (peptide)
rate of cyclo(L-Tyr-L-Tyr) transformation (nmoles/min/nmole of CYP121) [5]: 3.8
Kd [6]: 27.6 µM
